In PubChem BioAssay AID493060 (The Scripps Research Institute Molecular Screening Center, 2011):
Active and inactive are the calls of the source. How the calls were made is not given here.

Molecular target: Aryl hydrocarbon receptor (Homo sapiens) (UniProt P35869)
Assay: AHR activator potency, dose response, cell-based, luminescence, luciferase reporter, human (AID 493060)
Details: Human cell line AHR-responsive luciferase reporter

Chain of Aryl hydrocarbon receptor (Homo sapiens) (P35869 whole entry, looked up): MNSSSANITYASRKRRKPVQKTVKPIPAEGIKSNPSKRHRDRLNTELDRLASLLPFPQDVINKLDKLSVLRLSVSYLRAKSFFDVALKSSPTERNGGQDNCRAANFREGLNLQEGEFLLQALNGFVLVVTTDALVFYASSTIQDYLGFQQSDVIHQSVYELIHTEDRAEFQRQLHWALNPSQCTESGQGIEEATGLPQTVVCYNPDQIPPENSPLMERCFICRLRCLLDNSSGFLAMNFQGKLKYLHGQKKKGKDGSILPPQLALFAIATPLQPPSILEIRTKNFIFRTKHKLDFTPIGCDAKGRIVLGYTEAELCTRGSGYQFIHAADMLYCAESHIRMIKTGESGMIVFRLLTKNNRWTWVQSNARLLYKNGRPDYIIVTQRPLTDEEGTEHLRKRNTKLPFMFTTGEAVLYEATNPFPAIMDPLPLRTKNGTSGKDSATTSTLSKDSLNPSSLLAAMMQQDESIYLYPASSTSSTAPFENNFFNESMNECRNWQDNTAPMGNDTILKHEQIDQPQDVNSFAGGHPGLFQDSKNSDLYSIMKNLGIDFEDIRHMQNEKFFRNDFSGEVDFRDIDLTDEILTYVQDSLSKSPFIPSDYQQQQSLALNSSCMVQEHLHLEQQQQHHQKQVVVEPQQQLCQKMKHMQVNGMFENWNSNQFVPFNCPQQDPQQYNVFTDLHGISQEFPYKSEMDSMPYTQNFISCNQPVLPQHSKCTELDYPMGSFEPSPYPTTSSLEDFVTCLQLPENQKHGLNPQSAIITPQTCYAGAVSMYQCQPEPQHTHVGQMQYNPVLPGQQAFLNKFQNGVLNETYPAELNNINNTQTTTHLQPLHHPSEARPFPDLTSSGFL

Row | SMILES | EC50
1 | CCOc1ccccc1NC(=O)c1ccc2nccnc2c1 | 2840 nM
2 | CCOC(=O)Cc1cc(-c2ccc(O)cc2)nc2ccc3ccccc3c12 | 1080 nM
3 | CCC(=O)Nc1cc(OC)c(NC(=O)c2ccccc2)cc1OC | 2490 nM
4 | COC(=O)c1ccccc1NC(=O)Cn1ccnc1 | 2570 nM
5 | COc1ccccc1C(=O)Nc1ccc(N2CCCCC2)cc1 | 2980 nM
6 | Cc1nc(N)nc(Nc2ccc(Cl)cc2)c1Br | 1400 nM
7 | COc1ccc(Cl)cc1C(=O)Nc1ccc(N(C)C(C)=O)cc1 | 2410 nM
8 | O=C1c2ccccc2-c2nc3ccccc3nc21 | 3240 nM
9 | CN(C)c1nc(N)nc(-c2nc3ccccc3s2)n1 | 3330 nM
10 | O=C(CN1CCOCC1)Nc1nc2ccc([N+](=O)[O-])cc2s1 | 6250 nM
11 | COc1ccccc1NC(=O)Nc1cccnc1 | 1470 nM
12 | Cc1ccc(Nc2ncccc2C(N)=O)cc1 | 1130 nM
13 | CC(=O)c1ccc(NC(=O)c2cc(Cl)nc3ccccc23)cc1 | 968 nM
14 | O=C(Nc1ccon1)c1cnc2sccn2c1=O | inactive
15 | COc1ccc(NC(=O)c2cccc3c(Br)cccc23)cc1 | 1860 nM
16 | COc1ccc(C(=O)Nc2cc(OC)c(NC(=O)c3ccco3)cc2OC)cc1 | 1620 nM
17 | CCOc1ccc(NC(=O)c2cc3ccccc3cc2OC)cc1 | 1780 nM
18 | Cc1ccccc1-c1nc(-c2cccnc2)no1 | 1330 nM
19 | CCOc1ccc(-c2cc(C)n3nc(C(N)=O)cc3n2)cc1 | 1340 nM

More lines, now with the values ahead:

Row | EC50 | SMILES
20 | 217 nM | Cc1cc(Nc2ccc(Br)cc2)n2nc(C)nc2n1
21 | 260 nM | Cn1c(C(=O)N2CCC(C(N)=O)CC2)cc2cc(Cl)ccc21
22 | 250 nM | CCCC(=O)Nc1nn(C)c2nc3cc(C)ccc3cc12
23 | 513 nM | Cc1c(-c2ccn[nH]2)cc(NC(=O)c2ccc(Cl)cc2)c(=O)n1N
24 | 282 nM | CN1CCN(CCCNC(=O)c2cc3c(-c4ccc(Cl)cc4)nn(C)c3s2)CC1
25 | 747 nM | COc1cc2ccccc2cc1C(=O)Nc1ccc(C)cc1
26 | 889 nM | COc1cc2c(cc1NC(=O)Nc1ccc(C)cc1)oc1ccccc12
27 | 767 nM | Cn1c(N)c(C(=O)Nc2ccccc2F)sc1=S
28 | 853 nM | Cc1ccc(-c2cc(-c3cccs3)[nH]n2)c(O)c1
29 | 139 nM | COc1ccccc1NC(=O)c1ccc2c(c1)nnn2C
30 | 683 nM | Cc1csc(SCC(=O)Nc2ccc(Cl)cn2)n1
